System: KB
Experiment: Antiproliferative activity against human KB cells expressing human reduced folate carrier/folate receptor alpha after 96 hrs by celltiter-blue cell viability assay in presence of folic acid
Conditions: not given

SMILES | IC50 [nM]
Nc1nc2sc(CCCCc3ccc(C(=O)N[C@@H](CCC(=O)O)C(=O)O)cc3)cc2c(=O)[nH]1 | > 1000
Nc1nc2sc(CCCCCCCc3ccc(C(=O)N[C@@H](CCC(=O)O)C(=O)O)cc3)cc2c(=O)[nH]1 | > 1000
Nc1nc2sc(CCCCCCCCc3ccc(C(=O)N[C@@H](CCC(=O)O)C(=O)O)cc3)cc2c(=O)[nH]1 | > 1000

Molecular target: Folate receptor alpha (Homo sapiens) (UniProt P15328)
Experiment: Displacement of [3H]folic acid from human folate receptor alpha in chinese hamster RT16 cells assessed as relative binding affinity relative to folic acid
Assay type: cell-based
Conditions: not given

Folate receptor alpha (Homo sapiens), sequence (P15328 25-234 limits assumed): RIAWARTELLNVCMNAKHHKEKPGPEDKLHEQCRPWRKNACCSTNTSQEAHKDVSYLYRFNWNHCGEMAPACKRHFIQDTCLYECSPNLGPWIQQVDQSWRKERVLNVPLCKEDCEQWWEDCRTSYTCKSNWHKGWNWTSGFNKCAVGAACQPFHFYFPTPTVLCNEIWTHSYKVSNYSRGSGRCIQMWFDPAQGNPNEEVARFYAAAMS

SMILES | relative binding affinity (RBA)
CN(Cc1cnc2nc(N)nc(N)c2n1)c1ccc(C(=O)N[C@@H](CCC(=O)O)C(=O)O)cc1 | 0.8
Nc1nc2sc(CCCCc3ccc(C(=O)N[C@@H](CCC(=O)O)C(=O)O)cc3)cc2c(=O)[nH]1 | > 0.8
Nc1nc2sc(CCCCCCCc3ccc(C(=O)N[C@@H](CCC(=O)O)C(=O)O)cc3)cc2c(=O)[nH]1 | > 0.8
Nc1nc2sc(CCCCCCCCc3ccc(C(=O)N[C@@H](CCC(=O)O)C(=O)O)cc3)cc2c(=O)[nH]1 | > 0.8

System: not listed separately
Experiment: Antiproliferative activity against chinese hamster RT16 cells expressing human folate receptor alpha after 96 hrs by celltiter-blue cell viability assay
Conditions: Cricetulus griseus, RT16, 96 h

SMILES | IC50 [nM]
Nc1nc2sc(CCCCCCCc3ccc(C(=O)N[C@@H](CCC(=O)O)C(=O)O)cc3)cc2c(=O)[nH]1 | > 1000
Nc1nc2sc(CCCCCCCCc3ccc(C(=O)N[C@@H](CCC(=O)O)C(=O)O)cc3)cc2c(=O)[nH]1 | > 1000

Molecular target: Folate receptor beta (Homo sapiens) (UniProt P14207)
Experiment: Displacement of [3H]folic acid from human folate receptor beta in chinese hamster D4 cells assessed as relative binding affinity relative to folic acid
Assay type: cell-based
Conditions: not given

Folate receptor beta (Homo sapiens), sequence (P14207 17-230 limits assumed): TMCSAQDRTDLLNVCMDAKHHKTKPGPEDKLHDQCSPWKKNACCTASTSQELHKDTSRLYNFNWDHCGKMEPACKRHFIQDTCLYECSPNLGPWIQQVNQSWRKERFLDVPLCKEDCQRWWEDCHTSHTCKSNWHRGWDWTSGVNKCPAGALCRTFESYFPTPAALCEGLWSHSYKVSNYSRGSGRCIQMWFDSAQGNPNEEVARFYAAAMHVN

SMILES | relative binding affinity (RBA)
Nc1nc2sc(CCCCc3ccc(C(=O)N[C@@H](CCC(=O)O)C(=O)O)cc3)cc2c(=O)[nH]1 | > 0.8
Nc1nc2sc(CCCCCCCc3ccc(C(=O)N[C@@H](CCC(=O)O)C(=O)O)cc3)cc2c(=O)[nH]1 | > 0.8
Nc1nc2sc(CCCCCCCCc3ccc(C(=O)N[C@@H](CCC(=O)O)C(=O)O)cc3)cc2c(=O)[nH]1 | > 0.8

System: not listed separately
Experiment: Antiproliferative activity against chinese hamster MTXRII-OuaR2-4 cells expressing empty pCDNA3.1 after 96 hrs by celltiter-blue cell viability assay
Conditions: Cricetulus griseus

SMILES | IC50 [nM]
Nc1nc2sc(CCCCc3ccc(C(=O)N[C@@H](CCC(=O)O)C(=O)O)cc3)cc2c(=O)[nH]1 | > 1000
Nc1nc2sc(CCCCCCCc3ccc(C(=O)N[C@@H](CCC(=O)O)C(=O)O)cc3)cc2c(=O)[nH]1 | > 1000
Nc1nc2sc(CCCCCCCCc3ccc(C(=O)N[C@@H](CCC(=O)O)C(=O)O)cc3)cc2c(=O)[nH]1 | > 1000

System: not listed separately
Experiment: Antiproliferative activity against chinese hamster PC43-10 cells expressing human reduced folate carrier after 96 hrs by celltiter-blue cell viability assay
Conditions: Cricetulus griseus, PC43-10, 96 h

SMILES | IC50 [nM]
Nc1nc2sc(CCCCc3ccc(C(=O)N[C@@H](CCC(=O)O)C(=O)O)cc3)cc2c(=O)[nH]1 | > 1000
Nc1nc2sc(CCCCCCCc3ccc(C(=O)N[C@@H](CCC(=O)O)C(=O)O)cc3)cc2c(=O)[nH]1 | > 1000
Nc1nc2sc(CCCCCCCCc3ccc(C(=O)N[C@@H](CCC(=O)O)C(=O)O)cc3)cc2c(=O)[nH]1 | > 1000

System: not listed separately
Experiment: Antiproliferative activity against chinese hamster RT16 cells expressing human folate receptor alpha after 96 hrs by celltiter-blue cell viability assay in presence of folic acid
Conditions: Cricetulus griseus, RT16, 96 h

SMILES | IC50 [nM]
Nc1nc2sc(CCCCc3ccc(C(=O)N[C@@H](CCC(=O)O)C(=O)O)cc3)cc2c(=O)[nH]1 | > 1000
Nc1nc2sc(CCCCCCCc3ccc(C(=O)N[C@@H](CCC(=O)O)C(=O)O)cc3)cc2c(=O)[nH]1 | > 1000
Nc1nc2sc(CCCCCCCCc3ccc(C(=O)N[C@@H](CCC(=O)O)C(=O)O)cc3)cc2c(=O)[nH]1 | > 1000

System: IGROV-1
Experiment: Antiproliferative activity against human IGROV1 cells expressing human reduced folate carrier/folate receptor alpha after 96 hrs by celltiter-blue cell viability assay in presence of folic acid
Conditions: IGROV-1, 96 h

SMILES | IC50 [nM]
Nc1nc2sc(CCCCc3ccc(C(=O)N[C@@H](CCC(=O)O)C(=O)O)cc3)cc2c(=O)[nH]1 | > 1000
Nc1nc2sc(CCCCCCCc3ccc(C(=O)N[C@@H](CCC(=O)O)C(=O)O)cc3)cc2c(=O)[nH]1 | > 1000
Nc1nc2sc(CCCCCCCCc3ccc(C(=O)N[C@@H](CCC(=O)O)C(=O)O)cc3)cc2c(=O)[nH]1 | > 1000

System: IGROV-1
Experiment: Antiproliferative activity against human IGROV1 cells expressing human reduced folate carrier/folate receptor alpha after 96 hrs by celltiter-blue cell viability assay
Conditions: IGROV-1, 96 h

SMILES | IC50 [nM]
Nc1nc2sc(CCCCCCCc3ccc(C(=O)N[C@@H](CCC(=O)O)C(=O)O)cc3)cc2c(=O)[nH]1 | > 1000
Nc1nc2sc(CCCCCCCCc3ccc(C(=O)N[C@@H](CCC(=O)O)C(=O)O)cc3)cc2c(=O)[nH]1 | > 1000

System: not listed separately
Experiment: Antiproliferative activity against chinese hamster MTXRII-OuaR2-4 cells expressing human proton-coupled folate transporter after 96 hrs by celltiter-blue cell viability assay
Conditions: Cricetulus griseus

SMILES | IC50 [nM]
Nc1nc2sc(CCCCc3ccc(C(=O)N[C@@H](CCC(=O)O)C(=O)O)cc3)cc2c(=O)[nH]1 | > 1000
Nc1nc2sc(CCCCCCCc3ccc(C(=O)N[C@@H](CCC(=O)O)C(=O)O)cc3)cc2c(=O)[nH]1 | > 1000
Nc1nc2sc(CCCCCCCCc3ccc(C(=O)N[C@@H](CCC(=O)O)C(=O)O)cc3)cc2c(=O)[nH]1 | > 1000

System: not listed separately
Experiment: Antiproliferative activity against chinese hamster D4 cells expressing human folate receptor beta after 96 hrs by celltiter-blue cell viability assay in presence of folic acid
Conditions: Cricetulus griseus, D4, 96 h

SMILES | IC50 [nM]
Nc1nc2sc(CCCCc3ccc(C(=O)N[C@@H](CCC(=O)O)C(=O)O)cc3)cc2c(=O)[nH]1 | > 1000
Nc1nc2sc(CCCCCCCc3ccc(C(=O)N[C@@H](CCC(=O)O)C(=O)O)cc3)cc2c(=O)[nH]1 | > 1000
Nc1nc2sc(CCCCCCCCc3ccc(C(=O)N[C@@H](CCC(=O)O)C(=O)O)cc3)cc2c(=O)[nH]1 | > 1000

System: KB
Experiment: Antiproliferative activity against human KB cells expressing human reduced folate carrier/folate receptor alpha after 96 hrs by celltiter-blue cell viability assay
Conditions: not given

SMILES | IC50 [nM]
Nc1nc2sc(CCCCCCCc3ccc(C(=O)N[C@@H](CCC(=O)O)C(=O)O)cc3)cc2c(=O)[nH]1 | > 1000
Nc1nc2sc(CCCCCCCCc3ccc(C(=O)N[C@@H](CCC(=O)O)C(=O)O)cc3)cc2c(=O)[nH]1 | > 1000

System: not listed separately
Experiment: Antiproliferative activity against chinese hamster D4 cells expressing human folate receptor beta after 96 hrs by celltiter-blue cell viability assay
Conditions: Cricetulus griseus, D4, 96 h

SMILES | IC50 [nM]
Nc1nc2sc(CCCCCCCc3ccc(C(=O)N[C@@H](CCC(=O)O)C(=O)O)cc3)cc2c(=O)[nH]1 | > 1000
Nc1nc2sc(CCCCCCCCc3ccc(C(=O)N[C@@H](CCC(=O)O)C(=O)O)cc3)cc2c(=O)[nH]1 | > 1000

System: not listed separately
Experiment: Antiproliferative activity against chinese hamster MTXRII-OuaR2-4 cells expressing human reduced folate carrier after 96 hrs by celltiter-blue cell viability assay
Conditions: Cricetulus griseus

SMILES | IC50 [nM]
Nc1nc2sc(CCCCc3ccc(C(=O)N[C@@H](CCC(=O)O)C(=O)O)cc3)cc2c(=O)[nH]1 | > 1000
Nc1nc2sc(CCCCCCCc3ccc(C(=O)N[C@@H](CCC(=O)O)C(=O)O)cc3)cc2c(=O)[nH]1 | > 1000
Nc1nc2sc(CCCCCCCCc3ccc(C(=O)N[C@@H](CCC(=O)O)C(=O)O)cc3)cc2c(=O)[nH]1 | > 1000
